Patent publication US20240173314A1, “TREATMENT OF SICKLE CELL ANAEMIA” (ZYDUS LIFESCIENCES LIMITED, priority 2021, published 2024)

Assays:
[1] = system: PHZ-induced haemolytic anaemia; experiment: Phenylhydrazine (PHZ)-induced haemolytic anaemia in mice; format: in vivo, mice (male C57BL/6J); settings: 15 mg/kg, PO, daily day -1 to day 5; PHZ-treated mice
Description: Male C57BL/6J (6-8 weeks old) were used in the study. Mice were treated with phenylhydrazine (PHZ) on day 0, day 1 and day 3. The PHZ was given by intraperitoneally route at 40 mg/kg on day 0, and 20 mg/kg on day 1 and 3. Vehicle control or compound of formula (Ia) (15 mg/kg, PO) was given daily from day −1 to day 5. At the end of treatment period, whole blood samples were processed for haemoglobin, RBC and haematocrit measurement. The serum samples were analyzed for total iron content. The effect on oxidative and inflammatory markers will be analyzed.

isolated RBCs [2] = experiment: PHZ-induced reactive oxygen species (DCFDA/DCF) in isolated RBCs; format: cell-based, C57BL/6J; settings: PHZ 10 μM, RBC suspension
Description: (§1) The RBC was isolated from healthy male C57BL/6J (6-8 weeks old) into a heparinized tube. The RBC pellet was isolated by centrifugation. The RBC pellet was washed three time with glucose supplemented phosphate buffered saline (PBS). The final RBC pellet was diluted 1:4 with glucose supplemented PBS. The RBC suspension was incubated with compound of formula (Ia) at 0.05, 0.5 and 5 μM concentration for 30 min at 37° C. Then the phenylhydrazine (10 μM) was added to all groups and incubated for further 30 min at 37° C. After that 2,7-Dichlorofluorescin-diacetate (DCFDA, 400 μM) was added to the RBC suspension and incubated for 30 min at 37° C. After incubation, the RBC suspension was washed two times with glucose-PBS, and RBC were lysed with 200 μL of ice-cold 0.1% Triton X100 and then incubated for 30 min in darkness at room temperature. After 30 min incubation, the fluorescence of all samples was read (excitation wavelength: 485 nm and emission wavelength: 538 nm). The concentration of 2,7-Dichlorofluorescin (DCF) was calculated from the DCF standard curve. For thiobarbituric acid reactive substances (TBARS) measurement, RBC lysate was used and malondialdehyde was measured using thiobarbituric acid method (Patel V et al., 2018).

isolated RBCs [3] = experiment: TBARS (malondialdehyde, thiobarbituric acid method) in RBC lysate after PHZ; format: cell-based, C57BL/6J; settings: PHZ 10 μM
Description: as §1

[4] = system: erythroid progenitor cells in bone marrow of anemic rats; experiment: Erythroid progenitor cells in bone marrow of cisplatin/turpentine oil anemic rats; format: in vivo; settings: 15 mg/kg, PO, alternate day, two weeks
Description: The anaemia was induced by cisplatin (5 mg/kg, IP, single dose) and turpentine oil (5 mL/kg, SC, twice a week) administration for four weeks. The compound of formula (Ia) (15 mg/kg, PO, alternate day) treatment was initiated after two weeks of cisplatin/turpentine oil administration. After two weeks of compound of formula (Ia) treatment, animals were euthanized and bone marrow was isolated. Bone marrow smear was prepared and stain with May-Grunwald stain and Giemsa stain. The ratio of erythroid progenitor cell: total cells were expressed as percentage.

ischemia condition = settings: cited from earlier work
animal model of anaemia = animal model of anaemia (Jain et al., 2019; Joharapurkar et al., 2018); cited from earlier work
[5] = ischemia condition (Joharapurkar et al., 2021)
[6] = oxidative stress (Joharapurkar et al., 2021)

SMILES	decrease in serum iron levels [1] [%]	increase in HCT level compared with PHZ control [1] [%]	increase in RBC level compared with PHZ control [1] [%]	increase in hemoglobin level compared with PHZ control [1] [%]	decrease of ROS (DCF concentration) compared with vehicle control (isolated RBCs [2]; 0.05 μM) [%]	decrease of ROS (DCF concentration) compared with vehicle control (isolated RBCs [2]; 0.5 μM) [%]	decrease of ROS (DCF concentration) compared with vehicle control (isolated RBCs [2]; 5 μM) [%]	decrease of TBARS levels compared with vehicle control (isolated RBCs [3]; 0.05 μM) [%]	decrease of TBARS levels compared with vehicle control (isolated RBCs [3]; 0.5 μM) [%]	decrease of TBARS levels compared with vehicle control (isolated RBCs [3]; 5 μM) [%]	increase in % erythroid progenitor cells compared with vehicle control [4] [fold]	IL-1β levels (ischemia condition; [5])	IL-6 levels (ischemia condition; [5])	malondialdehyde (MDA) (ischemia condition; [6])	superoxide dismutase (SOD) (ischemia condition; [6])	HIF stabilization (animal model of anaemia)	erythropoiesis (animal model of anaemia)
O=C(O)CNC(=O)c1c(O)c2ccccc2n(OCC2CC2)c1=O [compound of formula (Ia)]	26.0±7.6	37.7±5.7	44.2±10.4	36.4±6.2	9.6±8.9	25.5±3.8	35.1±1.7	5.5±4.0	21.8±4.0	27.3±4.0	2.2±0.5	–	–	–	–	–	–
O=C(O)CNC(=O)c1c(O)c2ccccc2n(OCC2CC2)c1=O [Desidustat]	–	–	–	–	–	–	–	–	–	–	–	reduced	reduced	decreases	decreases	stabilizes HIF	induces erythropoiesis
